Like-named read-outs stand apart in the source and are kept apart here.
Key:
[1] = system: LPS stimulated RAW264.7 cells; experiment: TNF secretion in LPS stimulated RAW264.7 cells (ELISA); assay type: cell-based; conditions: Mus musculus, primed with compound 3 h, LPS 1 ng/ml 8 h, read-out: IC50 TNF secretion, RAW 264.7
Protocol: (§1) Figure 4 Tested compounds reduce TNF secretion in LPS stimulated mouse RAW264.7 and human PBMCs. A. 5×10^5 RAW264.7 cells were seeded in 96 wells for 18 h. Cells were primed with compounds at different concentration for 3 h before treated with LPS (1 ng/ml) for additional 8 h. TNF cytokine releases were monitored by ELISA. B. PBMC (0.2 ml at 1×10^5/ml) were primed with compounds at different concentration for 3 h before treated with LPS (1 ng/ml) for additional 8 h. TNF cytokine releases were monitored by ELISA. % of TNF secretion were calculated and graphed. C. Summary of compound IC50. The data represent n = 3–6 experiments. TEXT PRINTED IN THE PICTURE: (C) C6: RAW 264.7: 400nM; PBMC: 90nM | (C) C7: RAW 264.7: 8uM; PBMC: 10uM | (C) C9: RAW 264.7: 100nM; PBMC: 80nM | (C) C13: RAW 264.7: 70nM; PBMC: 25nM
(§2) 5×10^5 RAW264.7 cells were seeded in 96 wells for 18 h. Cells were primed with compounds at different concentration for 3 h before treated with LPS (1 ng/ml) for additional 8 h. TNF cytokine releases were monitored by ELISA. PBMC (0.2 ml at 1×10^5/ml) were primed with compounds at different concentration for 3 h before treated with LPS (1 ng/ml) for additional 8 h. TNF cytokine releases were monitored by ELISA. % of TNF secretion were calculated and graphed.

PDE4 [2] = experiment: PDE-Glo phosphodiesterase activity assay, PDE4; assay type: biochemical, human; conditions: for IC50: 10 mU purified PDE4 per reaction, PDE-Glo assay
Protocol: Compounds 1–14 (Fig. 2) were tested in vitro using PDE-glo phosphodiesterase assay (Promega, Madison, WI). Briefly, all the compounds were diluted in DMSO, and the final concentrations in each assay were 100, 10, 1, 0.1, 0.01, 0.001, 0.0001 µM. For the PDE4 activity assay, 10 mU of purified PDE4D (Millipore) was used per reaction. […] PDE4 = 8 µM.
(§3) For the PDE activity assay, all test compounds were diluted in DMSO with final concentrations in each assay of 100, 10, 1, 0.1, 0.01, 0.001, 0.0001 µM. For the PDE4 activity assay, 10 mU of purified PDE4 (Millipore) was used per reaction. Compounds 6, 7, 9 and 13 (blue underline) were further tested in PDE3, 5, 7, 10 activity assays in which 25 mU of purified enzyme was used per reaction. Summary of compound IC50 in lower right corner. TEXT PRINTED IN THE PICTURE: Compound 6: PDE3: >100uM; PDE4: 90nM; PDE5: 80uM; PDE7: >100uM; PDE10: >100uM | Compound 7: PDE3: >100uM; PDE4: 8uM; PDE5: >100uM; PDE7: >100uM; PDE10: >100uM | Compound 9: PDE3: >100uM; PDE4: 60nM; PDE5: >100uM; PDE7: >100uM; PDE10: >100uM | Compound 13: PDE3: >100uM; PDE4: 10nM; PDE5: 90uM; PDE7: >100uM; PDE10: >100uM
(§4) A PDE activity assay was carried out using the PDE-Glo Phosphodiesterase Assay per manufacturer’s instruction (Promega). Briefly, 5 ul of 1X PDE-Glo Reaction buffer containing 10 mU of purified human recombinant PDE4A4 (Millipore) was added to 96 well plate. All test compounds were dissolved in DMSO and a serial dilution (110) of the inhibitors were performed using 1X PDE-Glo Reaction buffer. 7.5 ul of test compounds were added to the PDE enzyme with the final concentrations in each assay of 100, 10, 1, 0.1, 0.01, 0.001, 0.0001 µM, and incubated at room temperature for 10 min. To initiate the PDE reaction, 12.5 ul of 2 µM cAMP was added to each reaction, mixed well and incubate at room temperature for 10 min. The reactions were terminated using 12.5 ul of PDE-Glo Termination Buffer. 12.5 ul of PDE-Glo Detection Solution containing PDE-Glo Detection Buffer and Protein Kinase A was added to each reaction. The reactions were carried at room temperature for 20 min. 50 ul of Kinase-Glo Reagent was then added to each reaction, mixed well, and incubate for 10 minutes at room temperature. The chemical luminescence signals were measured, quantified and graphed. Compounds 6, 7, 9 and 13 were further tested similarly using 25 mU purified PDE3, 5, 7, 10 (Millipore) enzyme.

PDE5 = biological target: T1, PDE5 (Homo sapiens, UniProt O76074); experiment: PDE-Glo phosphodiesterase activity assay, PDE5; assay type: biochemical; conditions: 25 mU purified enzyme per reaction
T1 construct: purchased Millipore
Protocol: as §3, §4

[3] = system: C57/BL6 mice given LPS (E. coli, 100 µg i.p.); experiment: LPS septic shock model; assay type: in vivo, mouse; conditions: for ID50 IL-6 / inhibitory dose [ID50] TNF: i.p. 10 min before LPS 100 ug i.p., blood 2 h later
Protocol: Mice were euthanized 2 h later using pentobarbital where blood was collected and assayed for IL6 and TNF cytokine levels. […] In a separate experiment, a brief pharmacokinetic study was performed where PDE4 inhibitors (1 mg/kg, i.p.) were given to mice 18 h before LPS administration (E. coli, 100 ug i.p.).
Figure 6 PDE4 inhibitors lessen cytokine storm induced by LPS septic shock. C57/BL6 mice were administered i.p. nothing (CON), vehicle, 10 ug/kg, 100 ug/kg, 1 mg/kg or 10 mg/kg of compounds 6, 7 or 9. Mice were given LPS (E. coli, 100 µg) 10 min later through an i.p. injection. 2 h later mice were euthanized using pentobarbital and blood was collected for IL-6 and TNF measurements. Shown in panel A–B is the % inhibition of cytokine levels as a function of drug dose. The data represent n = 3 mice/group at each dose. C57/BL6 mice were also pretreated with compound 5, 6, 7 or 9 at 1 mg/kg. Mice were given LPS (E. coli, 100 µg) 18 h later through an i.p. injection. 2 h later the mice were euthanized using pentobarbital and blood was collected for IL-6 and TNF measurements (C–D).
Compounds were diluted in PBS and various amounts (0.01, 0.1, 1 and 10 mg/kg) of compounds were administered to mice though an i.p. injection. 10 min later, mice were given 100 µg of LPS (E. coli) through an i.p. injection. 2 h later, mice were euthanized. Plasma was collected and processed for cytokine assays.

[4] = system: C57/BL6 mice challenged with H1N1 (A/PR/8/34); experiment: H1N1 pneumonia model; assay type: in vivo, mouse; conditions: 30 µg/ml in drinking water, estimated dose 5 mg/kg/d; for survival of mice infected with H1N1: versus diluent
PDE7 = experiment: PDE-Glo phosphodiesterase activity assay, PDE7; assay type: biochemical; conditions: 25 mU purified enzyme per reaction
Protocol: as §3, §4

PDE3 = experiment: PDE-Glo phosphodiesterase activity assay, PDE3; assay type: biochemical; conditions: 25 mU purified enzyme per reaction
Protocol: as §3, §4

[5] = system: LPS stimulated RAW264.7 and PBMC cells; experiment: TNF secretion in LPS stimulated cells, RAW264.7 and PBMC; assay type: cell-based, mouse; human; conditions: Mus musculus
Protocol: Compound 6, 7, 9 and 13 were also tested in LPS stimulated RAW264.7 (Fig. 4A) and PBMC (Fig. 4B) cells to evaluate their ability to suppress TNF secretion. […] PDE4. […] TNF ranging from 25–75 nM (Fig. 4C).
as §1, §2

PDE10 = biological target: T2, PDE10 (Homo sapiens, UniProt Q9Y233); experiment: PDE-Glo phosphodiesterase activity assay, PDE10; assay type: biochemical; conditions: 25 mU purified enzyme per reaction
T2 construct: purchased Millipore
Protocol: as §3, §4

LPS stimulated PBMC = experiment: TNF secretion in LPS stimulated PBMC (ELISA); assay type: cell-based; conditions: Homo sapiens, primed with compound 3 h, LPS 1 ng/ml 8 h
Protocol: as §1, §2

[6] = system: murine models of inflammation; conditions: parenteral and oral application; for severity of tissue injury: in each of the models
PDE4 [7] = system: PDE4; design: method as in PMID 15476679; conditions: selective inhibitors of PDE4 isolated from traditional Chinese medicines; cited from earlier work
[8] = RAW264.7, range over both cell types (and over the compounds named)

T2 sequence (Q9Y233 whole entry): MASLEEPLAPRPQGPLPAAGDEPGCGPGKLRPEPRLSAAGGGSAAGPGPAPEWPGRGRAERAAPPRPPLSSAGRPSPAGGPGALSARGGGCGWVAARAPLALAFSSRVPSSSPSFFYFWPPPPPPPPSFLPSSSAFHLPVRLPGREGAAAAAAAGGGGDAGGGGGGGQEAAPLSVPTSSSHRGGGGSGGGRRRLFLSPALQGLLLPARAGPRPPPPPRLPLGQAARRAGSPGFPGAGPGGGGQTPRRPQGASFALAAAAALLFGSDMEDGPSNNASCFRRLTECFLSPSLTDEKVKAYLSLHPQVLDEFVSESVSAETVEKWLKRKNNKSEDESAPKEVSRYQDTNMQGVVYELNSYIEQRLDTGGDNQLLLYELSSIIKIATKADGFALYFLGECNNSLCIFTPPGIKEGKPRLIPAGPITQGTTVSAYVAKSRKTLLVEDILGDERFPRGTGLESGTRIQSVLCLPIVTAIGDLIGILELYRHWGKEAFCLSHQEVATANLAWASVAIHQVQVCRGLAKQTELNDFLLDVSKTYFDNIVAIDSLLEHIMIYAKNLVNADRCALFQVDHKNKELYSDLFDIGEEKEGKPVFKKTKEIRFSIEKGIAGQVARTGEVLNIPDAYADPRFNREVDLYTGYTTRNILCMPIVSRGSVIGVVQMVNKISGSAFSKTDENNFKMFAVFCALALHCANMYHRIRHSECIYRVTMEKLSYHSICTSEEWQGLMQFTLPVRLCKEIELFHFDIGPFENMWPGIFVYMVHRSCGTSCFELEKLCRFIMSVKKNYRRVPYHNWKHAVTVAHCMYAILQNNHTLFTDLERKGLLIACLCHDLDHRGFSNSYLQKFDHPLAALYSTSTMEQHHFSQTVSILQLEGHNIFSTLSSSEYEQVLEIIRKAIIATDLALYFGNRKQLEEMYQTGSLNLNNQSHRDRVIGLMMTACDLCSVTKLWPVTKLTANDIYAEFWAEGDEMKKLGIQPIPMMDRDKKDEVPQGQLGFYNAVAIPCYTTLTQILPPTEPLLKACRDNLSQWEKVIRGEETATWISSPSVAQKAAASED

SMILES	IC50 [1]	IC50 (PDE4 [2])	times weaker in activity toward PDE4 compared with compound 6 (PDE4 [2]; in vitro)	IC50 (PDE5)	ID50 IL-6 [3]	inhibitory dose [ID50] TNF [3]	lavage cell counts, protein concentrations, and lavage cytokine IL-6 and TNF [4]	serum cytokines from H1N1-induced systematic inflammation [4]	signs of tissue injury (H&E, lung) [4]	survival of mice infected with H1N1 [4]	IC50 (PDE7)	IC50 (PDE3)	IC50 ([5]; RAW264.7, range over both cell types)	IC50 (PDE10)	IC50 (LPS stimulated PBMC)	severity of tissue injury [6]	overt signs of distress in treated animals [6]	IC50 [5, 8]	IC50 (PDE4 [7])	serum TNF and IL-6 after 18 h lead time ([3]; 1 mg/kg i.p. 18 h before LPS 100 ug i.p.)
COc1ccc([C@@H]2OC[C@H]3[C@@H]2CO[C@@H]3c2ccc(O[C@@H]3O[C@H](CO)[C@@H](O)[C@H](O)[C@H]3O)c(OC)c2)cc1OC [Compound 7, Forsythin]	8 µM	8 µM	> 80 times	> 100 µM	0.1∼1 mg/kg	0.01∼1 mg/kg	decreased	significantly reduced	able to lessen signs of tissue injury	significantly improved the survival	> 100 µM	> 100 µM	8 to 10 µM	> 100 µM	10 µM	lessen severity of tissue injury	none of the animals treated with the agents exhibited overt signs of distress	–	–	–
COc1ccc(C2OCC3(O)C(c4ccc(OC)c(OC)c4)OCC23)cc1OC (stereo not drawn) [Compound 6]	0.4 µM	0.09 µM	–	80 µM	0.1∼1 mg/kg	0.01∼1 mg/kg	decreased	significantly reduced	able to lessen signs of tissue injury	significantly improved the survival	> 100 µM	> 100 µM	–	> 100 µM	0.09 µM	lessen severity of tissue injury	none of the animals treated with the agents exhibited overt signs of distress	0.025 to 0.4 µM	–	–
COc1cc(O)c2c(=O)c(-c3ccc(O)cc3)coc2c1 [prunetin]	–	–	–	–	–	–	–	–	–	–	–	–	–	–	–	–	–	–	10 to 100 µM	–
COc1cccc(CN2N=NC3C(=O)N(c4ccc(OC)c(OC)c4)C(=O)C32)c1 (stereo not drawn) [Compound 9]	0.1 µM	0.06 µM	–	> 100 µM	0.1∼1 mg/kg	0.01∼1 mg/kg	decreased	significantly reduced	able to lessen signs of tissue injury	significantly improved the survival	> 100 µM	> 100 µM	–	> 100 µM	0.08 µM	lessen severity of tissue injury	none of the animals treated with the agents exhibited overt signs of distress	0.025 to 0.4 µM	–	excellent efficacy reducing both serum TNF and IL-6 cytokines
COc1ccc([C@@H]2CC(=O)c3c(O)cc(O)cc3O2)cc1O [Hesperetin]	–	–	–	–	–	–	–	–	–	–	–	–	–	–	–	–	–	–	10 to 100 µM	–
COc1ccc(N2C(=O)C3N=NN(CC(=O)Nc4cc(C)cc(C)c4)C3C2=O)cc1OC (stereo not drawn) [Compound 13]	0.07 µM	0.01 µM	–	90 µM	–	–	decreased	significantly reduced	able to lessen signs of tissue injury	significantly improved the survival	> 100 µM	> 100 µM	–	> 100 µM	0.025 µM	lessen severity of tissue injury	none of the animals treated with the agents exhibited overt signs of distress	0.025 to 0.4 µM	–	–
